Here are results for one molecule from paper PMC4256282, “Profound Activity of the Anti-cancer Drug Bortezomib against Echinococcus multilocularis Metacestodes Identifies the Proteasome as a Novel Drug Target for Cestodes” (PLoS Neglected Tropical Diseases, 2014).

By IC50 is commonly meant the midpoint of a concentration-inhibition curve. A low value points to greater potency.

One assay concerns the target bovine chymotrypsin (Bos taurus, UniProt P00766). Kind of assay: in-gel fluorescent zymography with SLLVT-AMC, chymotrypsin […] ng per lane, single BTZ concentration. The assay is classed as biochemical.
The target of assay [1] is T1, proteasome subunit beta 5 of E. multilocularis (EmPSMB5, EmuJ_000590200_1) (Echinococcus multilocularis, UniProt A0A068Y5K9).
T1 sequence (A0A068Y5K9 66-269): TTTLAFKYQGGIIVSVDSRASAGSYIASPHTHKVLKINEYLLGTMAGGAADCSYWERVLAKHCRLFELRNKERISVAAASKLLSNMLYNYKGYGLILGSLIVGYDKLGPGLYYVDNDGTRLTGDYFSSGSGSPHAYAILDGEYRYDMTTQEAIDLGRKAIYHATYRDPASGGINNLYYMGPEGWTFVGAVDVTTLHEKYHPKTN
Kind of assay: biochemical.

For the molecule `CC(C)C[C@H](NC(=O)[C@H](Cc1ccccc1)NC(=O)c1cnccn1)B(O)O` [BTZ, bortezomib], at bovine chymotrypsin, the “in-gel fluorescent zymography with SLLVT-AMC, chymotrypsin 5 ng per lane, single” value is “BTZ can inhibit also other targets, such as for example chymotrypsin (as shown in the control of Figure 7B)”. Further, the IC50 in assay [1] was found to be 760 nM.
